Each compound was assayed against T1, acetylcholinesterase enzyme from Electrophoruselectricus (AChE enzyme from electric eel) (Electrophorus electricus, UniProt O42275) (assay: biochemical). Details: not given.
T1 construct: purchased Sigma
Method: Cholinesterase inhibitory activity of the synthesized compounds was evaluated using the Ellman's microplate assay. For acetylcholinesterase (AChE) inhibitory assay, 140 μL of 0.1 M sodium phosphate buffer (pH 8) was first added to a 96-well microplate followed by 20 μL of test samples and 20 μL of 0.09 units/mL acetylcholinesterase enzyme from Electrophoruselectricus (Sigma). After 15 minutes of incubation at 25°C, 10 μL of 10 mM 5,5′-dithiobis-2-nitrobenzoic acid (DTNB) was added into each well followed by 10 μL of acetylthiocholine iodide (14 mM). At 30 minutes after the initiation of enzymatic reaction, absorbance of the colored end-product was measured using BioTek Power Wave X 340 Microplate Spectrophotometer at 412 nm.
Galantamine was used as positive control. Test samples and galantamine were prepared in DMSO at an initial concentration of 1 mg/mL (1000 ppm). The concentration of DMSO in final reaction mixture was 1%.
The initial screening was carried out at 10 μg/mL of test samples in 1% DMSO and each test was conducted in triplicate. Absorbencies of the test samples were corrected by subtracting the absorbance of their respective blank. Percentage enzyme inhibition is calculated using the following formula: (1) Percentage of inhibition =[…]/Absorbance of control×100. Subsequently, the determination of IC50 was carried out using a set of five concentrations.
All newly synthesized 1,6-naphthyridines were evaluated in vitro for their inhibitory potential against AChE enzyme from electric eel using colorimetric Ellman's method (Table 1).

T1 sequence (O42275 24-633): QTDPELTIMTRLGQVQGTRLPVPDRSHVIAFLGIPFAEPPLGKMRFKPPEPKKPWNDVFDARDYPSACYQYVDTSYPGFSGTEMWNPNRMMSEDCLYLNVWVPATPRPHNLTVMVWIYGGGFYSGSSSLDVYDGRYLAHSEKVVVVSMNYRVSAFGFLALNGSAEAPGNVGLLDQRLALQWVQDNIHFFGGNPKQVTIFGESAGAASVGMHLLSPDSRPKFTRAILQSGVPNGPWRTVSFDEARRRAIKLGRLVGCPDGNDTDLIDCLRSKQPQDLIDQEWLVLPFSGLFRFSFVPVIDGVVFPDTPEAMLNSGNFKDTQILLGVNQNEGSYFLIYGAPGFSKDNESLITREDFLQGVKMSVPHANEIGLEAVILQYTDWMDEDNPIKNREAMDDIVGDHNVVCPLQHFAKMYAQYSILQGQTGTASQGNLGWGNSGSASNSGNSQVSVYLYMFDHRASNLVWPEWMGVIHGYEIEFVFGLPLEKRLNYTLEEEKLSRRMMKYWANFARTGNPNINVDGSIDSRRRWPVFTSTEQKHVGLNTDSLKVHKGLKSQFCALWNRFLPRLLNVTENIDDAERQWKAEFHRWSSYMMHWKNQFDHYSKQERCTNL

SMILES | IC50 [µM]
N#Cc1c(-c2cccc([N+](=O)[O-])c2)c2c([nH]c1=O)/C(=C/c1cccc([N+](=O)[O-])c1)CNC2 [4g, (E)-8-(3-Nitrobenzylidene)-4-(3-nitrophenyl)-2-oxo-1,2,5,6,7,8-hexahydro-1,6-naphthyridine-3-carbonitrile] | 16.86 ± 0.02

Same assay, conditions: Ellman's method, AChE from electric eel, triplicate, five concentrations; read-out: AChE inhibition (IC50 ± SD)

SMILES | IC50 [µM]
N#Cc1c(-c2ccccc2Cl)c2c([nH]c1=O)/C(=C/c1ccccc1Cl)CNC2 [4c, (E)-8-(2-Chlorobenzylidene)-4-(2-chlorophenyl)-2-oxo-1,2,5,6,7,8-hexahydro-1,6-naphthyridine-3-carbonitrile] | 15.21 ± 0.1
COc1ccccc1/C=C1\CNCc2c1[nH]c(=O)c(C#N)c2-c1ccccc1OC [4e, (E)-8-(2-Methoxybenzylidene)-4-(2-methoxyphenyl)-2-oxo-1,2,5,6,7,8-hexahydro-1,6-naphthyridine-3-carbonitrile] | 2.12 ± 0.02
N#Cc1c(-c2ccc(F)cc2)c2c([nH]c1=O)/C(=C/c1ccc(F)cc1)CNC2 [4j, (E)-8-(4-Fluorobenzylidene)-4-(4-fluorophenyl)-2-oxo-1,2,5,6,7,8-hexahydro-1,6-naphthyridine-3-carbonitrile] | 14.16 ± 0.02
N#Cc1c(-c2ccc(Cl)cc2Cl)c2c([nH]c1=O)/C(=C/c1ccc(Cl)cc1Cl)CNC2 [4f, (E)-8-(2,4-Dichlorobenzylidene)-4-(2,4-dichlorophenyl)-2-oxo-1,2,5,6,7,8-hexahydro-1,6-naphthyridine-3-carbonitrile] | 24.72 ± 0.01
Cc1ccccc1/C=C1\CNCc2c1[nH]c(=O)c(C#N)c2-c1ccccc1C [4b, (E)-8-(2-Methylbenzylidene)-2-oxo-4-(o-tolyl)-1,2,5,6,7,8-hexahydro-1,6-naphthyridine-3-carbonitrile] | 7.2 ± 0.02
Cc1ccc(/C=C2\CNCc3c2[nH]c(=O)c(C#N)c3-c2ccc(C)cc2)cc1 [4h, (E)-8-(4-Methylbenzylidene)-2-oxo-4-(p-tolyl)-1,2,5,6,7,8-hexahydro-1,6-naphthyridine-3-carbonitrile] | 7.16 ± 0.02
N#Cc1c(-c2cccc3ccccc23)c2c([nH]c1=O)/C(=C/c1cccc3ccccc13)CNC2 [4k, (E)-4-(Naphthalen-1-yl)-8-(naphthalen-1-ylmethylene)-2-oxo-1,2,5,6,7,8-hexahydro-1,6-naphthyridine-3-carbonitrile] | 6.86 ± 0.02
N#Cc1c(-c2ccccc2Br)c2c([nH]c1=O)/C(=C/c1ccccc1Br)CNC2 [4d, (E)-8-(2-Bromobenzylidene)-4-(2-bromophenyl)-2-oxo-1,2,5,6,7,8-hexahydro-1,6-naphthyridine-3-carbonitrile] | 18.16 ± 0.02
N#Cc1c(-c2ccc(Cl)cc2)c2c([nH]c1=O)/C(=C/c1ccc(Cl)cc1)CNC2 [4i, (E)-8-(4-Chlorobenzylidene)-4-(4-chlorophenyl)-2-oxo-1,2,5,6,7,8-hexahydro-1,6-naphthyridine-3-carbonitrile] | 3.86 ± 0.02
N#Cc1c(-c2ccccc2)c2c([nH]c1=O)/C(=C/c1ccccc1)CNC2 [4a, (E)-8-Benzylidene-2-oxo-4-phenyl-1,2,5,6,7,8-hexahydro-1,6-naphthyridine-3-carbonitrile] | 11.18 ± 0.02

From PMC4325472, “An Expedient Synthesis, Acetylcholinesterase Inhibitory Activity, and Molecular Modeling Study of Highly Functionalized Hexahydro-1,6-naphthyridines” (BioMed Research International, 2015)
